Assay results reported in ChEMBL document CHEMBL4616629, “Diosmin Treats Lipopolysaccharide-Induced Inflammatory Pain and Peritonitis by Blocking NF-κB Activation in Mice” (J Nat Prod, 2020).
Active and inactive are the calls of the source.

Columns and labels:
Mus musculus [1] = experiment: Antioxidant activity in Swiss mouse model of LPS-induced inflammatory pain assessed as reduction in lipid peroxidation in hind paw skin at mg/kg, po pretreated for 1 hr followed by LPS-stimulation and measured after 3 hrs by colorimetric based TBARS assay; format: functional, organism-based
Mus musculus [2] = experiment: Antiinflammatory activity against Swiss mouse model of LPS-induced peritonitis assessed as decrease in total ROS level at 30 mg/kg, po pretreated for 1 hr followed by LPS-stimulation and measured after 3 hrs by H2DCF-DA staining based confocal microscopic method; format: functional, organism-based
Mus musculus [3] = experiment: Antiinflammatory activity against Swiss mouse model of LPS-induced inflammatory pain assessed as decrease in IL6 level in hind paw skin at 30 mg/kg, po pretreated for 1 hr followed by LPS-stimulation and measured after 3 hrs by ELISA; format: functional, organism-based
Mus musculus [4] = experiment: Analgesic activity in Swiss mouse model of LPS-induced inflammatory pain assessed as reduction in mechanical hyperalgesia at 30 to 100 mg/kg, po pretreated for 1 hr followed by LPS-stimulation and measured after 1 to 5 hrs by Von Frey test; format: functional, organism-based
Mus musculus [5] = experiment: (§1) Antiinflammatory activity against Swiss mouse model of LPS-induced peritonitis assessed as decrease in NBT-positive leukocytes in peritoneal exudate at 30 mg/kg, po pretreated for 1 hr followed by LPS-stimulation and measured after 3 hrs by light microscopic based cell counting method; format: functional, organism-based
[6] = target: Transcription factor p65 (Mus musculus) (UniProt Q04207); experiment: Inhibition of NFkappaB in Swiss mouse peritoneal exudates model of LPS-induced inflammatory pain assessed as ratio of phosphorylated NFkappaB p65 at (Ser536 residue) to total NFkappaB p65 at 30 mg/kg, po pretreated for 1 hr followed by LPS-stimulation and measured after 3 hrs by ELISA; format: organism-based
Mus musculus [7] = experiment: Antiinflammatory activity against Swiss mouse model of LPS-induced inflammatory pain assessed as decrease in IL1beta level in peritoneal cavity at 30 mg/kg, po pretreated for 1 hr followed by LPS-stimulation and measured after 3 hrs by ELISA; format: functional, organism-based
Mus musculus [8] = experiment: Analgesic activity in Swiss mouse model of LPS-induced inflammatory pain assessed as reduction in thermal hyperalgesia at 30 to 100 mg/kg, po pretreated for 1 hr followed by LPS-stimulation and measured after 1 to 5 hrs by hot plate technique; format: functional, organism-based
Mus musculus [9] = experiment: Antiinflammatory activity against Swiss mouse model of LPS-induced peritonitis assessed as decrease in superoxide anion production in peritoneal wash at 30 mg/kg, po pretreated for 1 hr followed by LPS-stimulation and measured after 3 hrs by NBT based spectrophotometric assay; format: functional, organism-based
Mus musculus [10] = experiment: (§2) Inhibition of NFkappaB in Swiss mouse peritoneal exudates model of LPS-induced inflammatory pain at 30 mg/kg, po pretreated for 1 hr followed by LPS-stimulation and measured after 3 hrs by Alexa Fluor 647 staining based immunofluorescence assay; format: organism-based
[11] = target: Transcription factor p65 (Mus musculus) (UniProt Q04207); experiment: as §2, with “pain assessed as reduction area of colocalization between phosphorylated NFkappaB p65 and DAPI” for “pain”; format: organism-based
Mus musculus [12] = experiment: Antiinflammatory activity against Swiss mouse model of LPS-induced inflammatory pain assessed as decrease in IL1beta level in hind paw skin at 30 mg/kg, po pretreated for 1 hr followed by LPS-stimulation and measured after 3 hrs by ELISA; format: functional, organism-based
Mus musculus [13] = experiment: Analgesic activity in LPS-induced C57BL/6 mouse harboring LysM-eGFP assessed as decrease in neutrophil recruitment in hind paw skin by measuring fluorescence at 30 mg/kg, po pretreated for 1 hr followed by LPS-stimulation and measured after 5 hrs by confocal microscopic method; format: functional, organism-based
Mus musculus [14] = experiment: as §1, with “leukocyte recruitment” for “NBT-positive leukocytes”, “cavity by measuring reduction in mononuclear cells” for “exudate”, “30 to 100” for “30”, “based Neubauer chamber” for “based”; format: functional, organism-based
Mus musculus [15] = experiment: Antioxidant activity in Swiss mouse model of LPS-induced inflammatory pain assessed as increase in GSH level in hind paw skin at mg/kg, po pretreated for 1 hr followed by LPS-stimulation and measured after 3 hrs by colorimetric based assay; format: functional, organism-based
Mus musculus [16] = experiment: Antioxidant activity in Swiss mouse model of LPS-induced inflammatory pain assessed as ABTS radical scavenging activity in hind paw skin at mg/kg, po pretreated for 1 hr followed by LPS-stimulation and measured after 3 hrs by colorimetric based assay; format: functional, organism-based
Mus musculus [17] = experiment: as §1, with “leukocyte recruitment” for “NBT-positive leukocytes”, “cavity by measuring reduction in polymorphonuclear” for “exudate”, “30 to 100” for “30”, “based Neubauer chamber” for “based”; format: functional, organism-based
Mus musculus [18] = experiment: as §1, with “leukocyte recruitment” for “NBT-positive leukocytes”, “cavity by measuring reduction in total leukocytes” for “exudate”, “30 to 100” for “30”, “based Neubauer chamber” for “based”; format: functional, organism-based
Mus musculus [19] = experiment: Analgesic activity in LPS-induced Swiss mouse assessed as increase in right/left paw ratio at 30 mg/kg, po pretreated for 1 hr followed by LPS-stimulation and measured after 1 to 5 hrs by static weight bearing assay; format: functional, organism-based
Mus musculus [20] = experiment: Antiinflammatory activity against Swiss mouse model of LPS-induced inflammatory pain assessed as decrease in IL6 level in peritoneal cavity at 30 mg/kg, po pretreated for 1 hr followed by LPS-stimulation and measured after 3 hrs by ELISA; format: functional, organism-based
Mus musculus [21] = experiment: Antiinflammatory activity against Swiss mouse model of LPS-induced inflammatory pain assessed as decrease in TNFalpha level in hind paw skin at 30 mg/kg, po pretreated for 1 hr followed by LPS-stimulation and measured after 3 hrs by ELISA; format: functional, organism-based
Mus musculus [22] = experiment: Antioxidant activity in Swiss mouse model of LPS-induced inflammatory pain assessed as total ferric ion reducing activity in hind paw skin at mg/kg, po pretreated for 1 hr followed by LPS-stimulation and measured after 3 hrs by colorimetric based FRAP assay; format: functional, organism-based
Mus musculus [23] = experiment: Antioxidant activity in Swiss mouse model of LPS-induced inflammatory pain assessed as decrease in superoxide production in hind paw skin at mg/kg, po pretreated for 1 hr followed by LPS-stimulation and measured after 3 hrs by colorimetric based NBT assay; format: functional, organism-based
Mus musculus [24] = experiment: Antiinflammatory activity against Swiss mouse model of LPS-induced inflammatory pain assessed as decrease in TNFalpha level in peritoneal cavity at 30 mg/kg, po pretreated for 1 hr followed by LPS-stimulation and measured after 3 hrs by ELISA; format: functional, organism-based
Mus musculus [25] = experiment: Analgesic activity in LPS-induced Swiss mouse assessed as decrease in neutrophil recruitment in hind paw skin by measuring MPO activity at 10 to 100 mg/kg, po pretreated for 1 hr followed by LPS-stimulation and measured after 5 hrs by colorimetric assay; format: functional, organism-based

Transcription factor p65 (Mus musculus), sequence (Q04207 whole entry): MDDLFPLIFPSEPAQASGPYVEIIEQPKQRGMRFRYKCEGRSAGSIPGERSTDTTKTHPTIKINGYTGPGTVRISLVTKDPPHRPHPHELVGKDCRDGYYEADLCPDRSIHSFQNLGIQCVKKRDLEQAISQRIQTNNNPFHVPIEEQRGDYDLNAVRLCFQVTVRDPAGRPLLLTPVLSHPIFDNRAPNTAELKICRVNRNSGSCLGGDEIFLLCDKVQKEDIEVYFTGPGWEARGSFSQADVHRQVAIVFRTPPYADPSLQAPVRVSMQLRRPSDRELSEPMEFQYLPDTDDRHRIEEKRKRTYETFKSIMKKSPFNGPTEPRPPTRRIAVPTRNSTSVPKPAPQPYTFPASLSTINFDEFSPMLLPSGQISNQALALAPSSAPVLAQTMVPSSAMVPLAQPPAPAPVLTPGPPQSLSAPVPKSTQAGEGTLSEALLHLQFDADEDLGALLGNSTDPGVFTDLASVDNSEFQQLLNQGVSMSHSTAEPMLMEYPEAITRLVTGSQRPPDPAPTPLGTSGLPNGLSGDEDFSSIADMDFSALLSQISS

COc1ccc(-c2cc(=O)c3c(O)cc(O[C@@H]4O[C@H](CO[C@@H]5O[C@@H](C)[C@H](O)[C@@H](O)[C@H]5O)[C@@H](O)[C@H](O)[C@H]4O)cc3o2)cc1O
active: Activity (Mus musculus [1]) | Activity (Mus musculus [2]) | Activity (Mus musculus [3]) | Activity (Mus musculus [4]) | Activity (Mus musculus [5]) | inhibition [6] | Activity (Mus musculus [7]) | Activity (Mus musculus [8]) | Activity (Mus musculus [9]) | inhibition (Mus musculus [10]) | inhibition [11] | Activity (Mus musculus [12]) | Activity (Mus musculus [13]) | Activity (Mus musculus [14]) | Activity (Mus musculus [15]) | Activity (Mus musculus [16]) | Activity (Mus musculus [17]) | Activity (Mus musculus [18]) | Activity (Mus musculus [19]) | Activity (Mus musculus [20]) | Activity (Mus musculus [21]) | Activity (Mus musculus [22]) | Activity (Mus musculus [23]) | Activity (Mus musculus [24]) | Activity (Mus musculus [25])
